{"source": "patent US20080318891A1", "about": "“Antisense oligonucleotides against thymidylate synthase” (priority 1998, published 2008)", "system": "TS protein", "experiment": "TS binding assay ([6-3H]5-FdUMP binding) in HeLa cell lysates", "assay_type": "cell-based, human", "settings": "HeLa cells, different times following transfection", "protocol": "5-FdUMP binding was measured in cells transfected with ODN 83 (hatched bars) or ODN 32 (open bars) at different times following transfection. (A) Results are plotted as a percent of 5-FdUMP binding in cells transfected with control ODN 32±SE (n=5). The values for ODN 32 (n=5) were normalized to 100% and are shown without error bars. […] Error bars indicate errors calculated according to a Student t-test, and indicate error due to differences in experimental conditions in 5 measurements taken on different days, and differences due to transfection with different ODNs. The asterisks indicate significant differences (p<0.02) determined by using a paired Student t-test.\nTS binding assay: Cellular content of TS was assayed by binding of [6-^3H]5-FdUMP. […] The assay was performed using cells that were treated with antisense ODN 83 or the scrambled control ODN 32. Briefly, cells were harvested by scraping into PBS and resuspending the subsequent pellet in 100 mM KH2PO4 (pH 7.4). […] The total protein concentration was determined using Coomassie staining (BioRad reagent) (MI) in order to express results as pmol 5-FdUMP bound per mg total protein. 5-FdUMP binding was assessed in paired lysates from cells transfected with ODN 83 or ODN 32, in separate incubation reactions carried out on different days; however, pairs were always assessed together under the same reaction conditions. […]", "data": [{"substance": "ODN 32: scrambled control, randomised sequence of ODN 83, 5′-ATGCGCCAACGGTTCCTAAA-3′ (all phosphorothioate, sugars by position and methylation of C not given here; further chemistry not fully specified) [reference compound]", "values": [{"measurement": "TS protein levels (inferred by 5-FdUMP binding)", "result": "no significant effect"}]}]}
